Several values for one entry are separate records, joined by “and”; a condition that tells them apart may be missing. Identical values can stand only once. ± gives the expanded uncertainty stated by the source.
Conditions: Liquid, Closed cell (Static) method

CO [methanol]
Conditions	vapor or sublimation pressure [kPa]
274.15 K	4.252 ± 0.04
278.15 K	5.501 ± 0.043
283.15 K	7.411 ± 0.047
293.15 K	13 ± 0.061
303.15 K	21.86 ± 0.086
313.15 K	35.43 ± 0.13
323.15 K	55.54 ± 0.19
333.15 K	84.93 ± 0.29
343.15 K	125.74 ± 8
353.15 K	181.56 ± 8
363.15 K	256.27 ± 8
373.15 K	354.35 ± 8.1
383.15 K	480.82 ± 8.1
393.15 K	641.27 ± 8.2
403.15 K	841.83 ± 8.4
413.15 K	1089.2 ± 8.6

O [water]
Conditions	vapor or sublimation pressure
279.48 K	0.953 ± 0.031 kPa
286.16 K	1.508 ± 0.031 kPa
291.39 K	2.094 ± 0.032 kPa
293.14 K	2.337 ± 0.032 kPa
296.31 K	2.839 ± 0.032 kPa
296.32 K	2.834 ± 0.032 kPa
298.81 K	3.288 ± 0.032 kPa
301.37 K	3.827 ± 0.033 kPa
303.57 K	4.36 ± 0.033 kPa
307.73 K	5.507 ± 0.034 kPa
308.26 K	5.666 ± 0.034 kPa
312.87 K	7.275 ± 0.035 kPa
313.07 K	7.345 ± 0.035 kPa
314.62 K	7.977 ± 0.036 kPa
318.13 K	9.585 ± 0.038 kPa and 9.578 ± 0.038 kPa
322.99 K	12.26 ± 0.04 kPa
323.1 K	12.32 ± 0.04 kPa
323.17 K	12.36 ± 0.04 kPa
328.14 K	15.75 ± 0.045 kPa
328.88 K	16.31 ± 0.045 kPa
